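The compound was tested at five concentrations on cells cultured in 96-well plates, with a 48-hour exposure period. The concentration for full growth arrest is given as TGI.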
Legend:
Experiment in all cases: inhibition of tumour cell growth, NCI panel, 48 h
KM12 colon = system: KM12 colon
OVCAR-3 ovarian = system: OVCAR-3 ovarian
SK-MEL-5 melanoma = system: SK-MEL-5 melanoma
HL-60(TB) leukemia = system: HL-60(TB) leukemia
SNB-19 CNS = system: SNB-19 CNS
NCI-H23 lung = system: NCI-H23 lung
SK-MEL-2 melanoma = system: SK-MEL-2 melanoma
HT29 colon = system: HT29 colon
786-0 renal = system: 786-0 renal
OVCAR-4 ovarian = system: OVCAR-4 ovarian
NCI-H522 lung = system: NCI-H522 lung
U251 CNS = system: U251 CNS
MALME-3M melanoma = system: MALME-3M melanoma
UACC-62 melanoma = system: UACC-62 melanoma
COLO 205 colon = system: COLO 205 colon
NCI-H460 lung = system: NCI-H460 lung
SR leukemia = system: SR leukemia
A498 renal = system: A498 renal
HS 578T breast = system: HS 578T breast
OVCAR-5 ovarian = system: OVCAR-5 ovarian
ACHN renal = system: ACHN renal
SNB-75 CNS = system: SNB-75 CNS
NCI/ADR-RES ovarian = system: NCI/ADR-RES ovarian
MDA-MB-231 breast = system: MDA-MB-231 breast
NCI-H226 lung = system: NCI-H226 lung
SF-295 CNS = system: SF-295 CNS
T-47D breast = system: T-47D breast
TK-10 renal = system: TK-10 renal
HCT-15 colon = system: HCT-15 colon
UACC-257 melanoma = system: UACC-257 melanoma
DU-145 prostate = system: DU-145 prostate
SW-620 colon = system: SW-620 colon
M14 melanoma = system: M14 melanoma
MDA-MB-435 = system: MDA-MB-435
EKVX NSCLC = system: EKVX NSCLC
OVCAR-8 ovarian = system: OVCAR-8 ovarian
SN12C renal = system: SN12C renal
CAKI-1 renal = system: CAKI-1 renal
HCT-116 colon = system: HCT-116 colon
SF-268 CNS = system: SF-268 CNS
IGROV1 ovarian = system: IGROV1 ovarian
SK-OV-3 ovarian = system: SK-OV-3 ovarian
PC-3 prostate = system: PC-3 prostate
MCF7 breast = system: MCF7 breast
BT-549 breast = system: BT-549 breast
K-562 leukemia = system: K-562 leukemia
SF-539 CNS = system: SF-539 CNS
A549 NSCLC = system: A549 NSCLC
SK-MEL-28 melanoma = system: SK-MEL-28 melanoma
HOP-62 NSCLC = system: HOP-62 NSCLC
UO-31 renal = system: UO-31 renal

Measured: TGI

COc1cc2nc(-c3cccs3)nc(Cl)c2cc1OC
76 µM: MCF7 breast
34.8 µM: SR leukemia
> 100 µM: all other assays above
